Experimental data: patent US20120029054A1, “RNA Interference Mediated Inhibition of GATA Binding Protein 3 (GATA3) Gene Expression Using Short Intefering Nucleic Acid (siNA)” (Merck Sharp & Dohme Corp., priority 2009, published 2012)
[invAb] = inverted abasic unit; m = 2'-O-methyl; r = 2'-OH (RNA); f = 2'-fluoro

How the values were obtained:
GATA3 mRNA [1] = assay: GATA3 mRNA knock-down (Taqman qRT-PCR) after RNAiMax transfection of mouse RAG cells; type: cell-based; details: 10 nM siNA, 24 hrs, average of 2 experiments
Procedure: RAG (murine; ATCC cat# CCL-142): Cells were cultured at 37° C. in the presence of 5% CO2 and grown in Eagle's Minimum Essential medium with supplemented with 10% of fetal bovine serum, 100 μg/mL of streptomycin, and 100 U/mL penicillin.
(§1) Cells were plated in all wells of a tissue-culture treated, 96-well plate at a final count of 5000 cells/well in 100 μL of the appropriate culture media. The cells were cultured for 24 hours after plating at 37° C. in the presence of 5% CO2.
(§2) After 24 hours, complexes containing siNA and RNAiMax were created as follows: A solution of RNAiMax diluted 33-fold in OPTI-MEM was prepared. In parallel, solutions of the siNAs for testing were prepared to a final concentration of 120 nM in OPTI-MEM. After incubation of RNAiMax/OPTI-MEM solution at room temperature for 5 min, an equal volume of the siNA solution and the RNAiMax solution were added together for each of the siNAs.
(§3) This solution was incubated at room temperature for 20 minutes. After incubation, 20 uL of the solution was added to each of the relevant wells. The final concentration of siNA in each well was 10 nM and the final volume of RNAiMax in each well was 0.3 ul.
(§4) The time of incubation with the RNAiMax-siNA complexes was 24 hours and there was no change in media between transfection and harvesting, unless otherwise indicated.
(§5) RNA was extracted from a 96-well plate using the TaqMan® Gene Expression Cells-to-CT™ Kit (Cat#4399002) with a modified protocol. Briefly, a 60 uL (1 plate) or 110 uL (2 plates) of the Lysis Solution with DNase I was dispensed into each well of the Lysis Buffer Plate (twin.tec full skirt plate). The lysis buffer and stop plates were stored at 4° C. until the cells were washed.
(§6) The plate was spun at 1100 rpm for 5 minutes. The culture medium was aspirated and discarded from the wells of the culture plate. The lysis was performed automatically using a BioMek FX instrument and method. After the Biomek method was completed, the lysis plate was incubated for 2 min. at room temperature. The lysis plate can be stored for 2 hours at 4° C., or at −20° C. or −80° C. for two months.
(§7) Each well of the reverse transcription plate required 10 uL of 2× reverse transcriptase Buffer, 1 uL of 20× reverse transcription enzyme and 2 uL of nuclease-free water. The reverse transcription master mix was prepared by mixing 2× reverse transcription buffer, 20× reverse transcription enzyme mix, and nuclease-free water. 13 uL of the reverse transcription master mix was dispensed into each well of the reverse transcription plate (semi-skirted). A separate reverse transcription plate was prepared for each cell plate. The plate was loaded onto a Biomek NX or Biomek FX Dual-96 and the Biomek method was run. The program is programmed to automatically added 7 uL of lysate from the cell lysis procedure described above into each well of the reverse transcription plate. The plate is sealed and spun on a centrifuge (1000 rpm for 30 seconds) to settle the contents to the bottom of the reverse transcription plate. The plate is placed in a thermocycler at 37° C. for 60 min, 95° C. for 5 min, and 4° C. until the plate is removed from the thermocycler. Upon removal, if not used immediately, the plate was frozen at −20° C.
(§8) A series of probes and primers were used to detect the various mRNA transcripts of the genes of β-Actin (human cell line only), and of GATA3 and GAPDH in mouse and human cell lines. All Taqman probes and primers for the experiments here-in described were supplied as pre-validated sets by Applied Biosystems, Inc. (see Table 2).
(§9) The assays were performed on an ABI 7900 instrument, according to the manufacturer's instructions. A TaqMan Gene Expression Master Mix (provided in the Cells-to-CT™, Applied Biosystems, Cat #4399002) was used. The PCR reactions were carried out at 50° C. for 2 min, 95° C. for 20 min followed by 40 cycles at 95° C. for 15 secs and 60° C. for 1 min. […]

GATA3 mRNA [2] = assay: GATA3 mRNA knock-down (Taqman qRT-PCR) after RNAiMax transfection of human MCF7 cells; screen and IC50 dose response; type: cell-based; details: 10 nM siNA, MCF7 cells, 24 hrs
Procedure: MCF7 (human; ATCC cat# HTB-22): Cells were cultured at 37° C. in the presence of 5% CO2 and grown in Eagle's Minimum Essential medium with supplemented with fetal bovine serum at a final concentration of 10% and 100 μg/mL of streptomycin and 100 U/mL penicillin.
as §1, §2, §3, §4, §5, §6, §7, §8, §9

Row | Substance | % KD Mouse (GATA3 mRNA [1]) [%] | % KD Human (GATA3 mRNA [2]; average of 3 experiments) [%] | % KD Human (GATA3 mRNA [2]; * Hs00231122_m1 Taqman Assay) | % KD Human (GATA3 mRNA [2]; ** Hs00922328_m1 Taqman Assay)
1 | 30262-DC: GATA3 siNA duplex, site 1818: sense B ccGAuGcAcccGccAuccA TTB (SEQ 77), antisense UGGAuGGcGGGuGcAucGGUU (SEQ 78) (sense CCGAUGCACCCGCCAUCCATT; antisense UGGAUGGCGGGUGCAUCGGUU; chemistry not fully specified) | 1 ± 7 | 10 ± 11 | – | –
2 | 30264-DC: GATA3 siNA duplex, site 690: sense B GAGGAGGuGGAuGuGcuuu TTB (SEQ 81), antisense AAAGcAcAuccAccuccucUU (SEQ 82) (sense GAGGAGGUGGAUGUGCUUUTT; antisense AAAGCACAUCCACCUCCUCUU; chemistry not fully specified) | −18 ± 0 | −20 ± 12 | – | –
3 | 30265-DC: GATA3 siNA duplex, mouse site 2025: sense B GcccGAAAGcGAcAGAucu TTB (SEQ 83), antisense AGAucuGucGcuuucGGGcUU (SEQ 84) (sense GCCCGAAAGCGACAGAUCUTT; antisense AGAUCUGUCGCUUUCGGGCUU; chemistry not fully specified) | 58 ± 0 | −8 ± 13 | – | –
4 | 30266-DC: GATA3 siNA duplex, mouse site 1258: sense B cccuAuGuGcccGAGuAcA TTB (SEQ 85), antisense UGUAcucGGGcAcAuAGGGUU (SEQ 86) (sense CCCUAUGUGCCCGAGUACATT; antisense UGUACUCGGGCACAUAGGGUU; chemistry not fully specified) | 8 ± 5 | −3 ± 5 | – | –
5 | 30267-DC: GATA3 siNA duplex, mouse site 1324: sense B GGGuucGGAuGuAAGucGA TTB (SEQ 87), antisense UCGAcuuAcAuccGAAcccUU (SEQ 88) (sense GGGUUCGGAUGUAAGUCGATT; antisense UCGACUUACAUCCGAACCCUU; chemistry not fully specified) | 40 ± 1 | −13 ± 15 | – | –
6 | 30268-DC: GATA3 siNA duplex, mouse site 1533: sense B GAcAuccuGcGcGaacuGu TTB (SEQ 89), antisense ACAGuucGcGcAGGAuGucUU (SEQ 90) (sense GACAUCCUGCGCGAACUGUTT; antisense ACAGUUCGCGCAGGAUGUCUU; chemistry not fully specified) | 17 ± 2 | 16 ± 3 | – | –
7 | 30269-DC: GATA3 siNA duplex, mouse site 1449: sense B cuGcGGAcucuAccAuAAA TTB (SEQ 91), antisense UUUAuGGuAGAGuccGcAGUU (SEQ 92) (sense CUGCGGACUCUACCAUAAATT; antisense UUUAUGGUAGAGUCCGCAGUU; sense: DNA at AGT, 2'-fluoro at CU, [invAb] at 5' end, 3' end, backbone not given here; antisense: sugars from the 5' end rrrmfmmfmmmmfffmfmmmm, backbone not given here) | 83 ± 0 | −36 ± 9 | – | –
8 | 30270-DC: GATA3 siNA duplex, mouse site 1960: sense B ccAAGuGuGcGAAGAGuuc TTB (SEQ 93), antisense GAAcucuucGcAcAcuuGGUU (SEQ 94, row printed as 30269-DC) (sense CCAAGUGUGCGAAGAGUUCTT; antisense GAACUCUUCGCACACUUGGUU; chemistry not fully specified) | 69 ± 4 | −25 ± 24 | – | –
9 | 30271-DC: GATA3 siNA duplex, mouse site 1620: sense B GuAcuAcAAGcuucAuAAu TTB (SEQ 95), antisense AUUAuGAAGcuuGuAGuAcUU (SEQ 96) (sense GUACUACAAGCUUCAUAAUTT; antisense AUUAUGAAGCUUGUAGUACUU; chemistry not fully specified) | 70 ± 0 | 10 ± 11 | – | –
10 | 30272-DC: GATA3 siNA duplex, mouse site 807: sense B GAGGuAuccuccGAcccAc TTB (SEQ 97), antisense GUGGGucGGAGGAuAccucUU (SEQ 98) (sense GAGGUAUCCUCCGACCCACTT; antisense GUGGGUCGGAGGAUACCUCUU; chemistry not fully specified) | 85 ± 0 | – | 69 ± 3* % | 33 ± 19** %
11 | 30273-DC: GATA3 siNA duplex, mouse site 1489: sense B cuuAucAAGcccAAGcGAA TTB (SEQ 99), antisense UUCGcuuGGGcuuGAuAAGUU (SEQ 100) (sense CUUAUCAAGCCCAAGCGAATT; antisense UUCGCUUGGGCUUGAUAAGUU; sense: DNA at AGT, 2'-fluoro at CU, [invAb] at 5' end, 3' end, backbone not given here; antisense: chemistry not given here) | 33 ± 1 | −3 ± 16 | – | –
12 | 30274-DC: GATA3 siNA duplex, mouse site 704: sense B cucAGuAuccGcuGAcGGA TTB (SEQ 101), antisense UCCGucAGcGGAuAcuGAGUU (SEQ 102) (sense CUCAGUAUCCGCUGACGGATT; antisense UCCGUCAGCGGAUACUGAGUU; sense: DNA at AGT, 2'-fluoro at CU, [invAb] at 5' end, 3' end, backbone not given here; antisense: sugars from the 5' end rrrmffmmfmmmfmffmmmmm, backbone not given here) | −2 ± 4 | 0 ± 13 | – | –
13 | 30275-DC: GATA3 siNA duplex, mouse site 794: sense B GGGcuAcGGuGcAGAGGuA TTB (SEQ 103), antisense UACcucuGcAccGuAGcccUU (SEQ 104) (sense GGGCUACGGUGCAGAGGUATT; antisense UACCUCUGCACCGUAGCCCUU; sense: DNA at AGT, 2'-fluoro at CU, [invAb] at 5' end, 3' end, backbone not given here; antisense: sugars from the 5' end rrrffffmfmffmfmmfffmm, backbone not given here) | 49 ± 7 | 42 ± 8 | – | –
14 | 30276-DC: GATA3 siNA duplex, mouse site 678: sense B GGGccucGGccAuucGuAc TTB (SEQ 105), antisense GUAcGAAuGGccGAGGcccUU (SEQ 106) (sense GGGCCUCGGCCAUUCGUACTT; antisense GUACGAAUGGCCGAGGCCCUU; sense: DNA at AGT, 2'-fluoro at CU, [invAb] at 5' end, 3' end, backbone not given here; antisense: sugars from the 5' end rrrfmmmfmmffmmmmfffmm, backbone not given here) | −2 ± 6 | −12 ± 16 | – | –
